Assay results reported in paper PMC7669869, “AdipoR1/AdipoR2 dual agonist recovers nonalcoholic steatohepatitis and related fibrosis via endoplasmic reticulum-mitochondria axis” (Nature Communications, 2020).
Non-standard residues stand in square brackets, D forms with d. Residues, ends and D or L forms follow the SMILES beside them. Nva = CCC[C@H](N)C(=O)O

Key:
HFD induced NASH mice = test: HFD mice: insulin tolerance test (ITT); type: in vivo, mouse; conditions: JT003 500 μg kg−1, in words
Method: For insulin tolerance test, one week after OGTT assay, 6 h fasted mice were treated with JT003, and the baseline blood glucose level was measured. An hour later, 0.25 U kg^−1 insulin (Novolin R, Denmark) were intraperitoneal injection to mice, blood glucose level was measured at 15, 30, 45, 60 min

[1] = tested on: CCl4 induced liver fibrosis mice; test: CCl4 mice: serum ALT, AST and liver HYP; type: in vivo, mouse; parameters: AST, Supplementary Figure 14 / HYP, Supplementary Figure 14: unit not given here; conditions: for HYP, Supplementary Figure 14 / AST, Supplementary Figure 14: CCl4 + JT003 mice; for HYP, Supplementary Figure 14: liver; for AST, Supplementary Figure 14: serum
Method: (§1) Male mice liver fibrosis was induced by intraperitoneal injection of 20% CCl4 (Sigma, USA) diluted in corn oil (Aladdin, China) every 3 days for 6 weeks (n = 6; 5 ml kg^−1 body weight). Mice injected with equivalent volume of corn oil serves as control group (n = 6). Liver fibrosis mice treated with JT003 for 3 weeks were used to evaluated the pharmacological effects (n = 6; 500 μg kg^−1; daily intraperitoneal injection).
The levels of ALT, AST, TC and TG in serum were determined using certain commercial assay kits (Nanjing Jiancheng Bioengineering Institute, China). Fasting adiponectin and insulin were quantified in plasma samples using corresponding commercially available Elisa kits (Cloud-Clone Crop, USA).
The levels of TG and HYP in liver tissue were detected with certain commercial assay kit (Nanjing Jiancheng Bioengineering Institute, China). Formalin-fixed liver tissues were embedded in paraffin, sectioned into 5 μm slices. After deparaffinization and rehydration of the section slices, they were stained with Haematoxylin and Eosin or Periodic Acid-Schiff. For the detection of liver collagen content, Sirius Red staining for collagen was performed. OCT-embedded frozen liver tissues were sectioned into 12 μm slices, and Oil Red O staining was performed. The cryostat-cut slices were stained with freshly prepared Oil Red O working solution for 7 min Two independent experimenters who were blinded to the treatment evaluated the staining slides and analyzed the score for steatosis, glucogen accumulation and collagen proliferation area.

[2] = tested on: liver gene expression of CCl4 induced liver fibrosis mice; test: CCl4 mice: liver RNAseq gene expression analysis; type: in vivo, mouse; conditions: CCl4 + JT003 group
Method: as §1
The positive area of all stained liver slices was quantified by ImageJ (https://imagej.nih.gov/ij/). All data in this study were shown as the mean ± SEM (Standard Error). Student’s two-tailed t test was used to compare the mean of two groups of samples. All statistical analyses were performed with GraphPad Prism software (https://www.graphpad.com/). Significance was considered when p < 0.05. In RNAseq gene expression analysis, false discovery rate <0.01, q value <0.001. The confidence level was 95%.

[3] = Serum stability assay (RP-HPLC); type: in vitro ADME; conditions: for Fraction of peptide remaining, Supplementary Figure 5: mouse serum
Method: The stability of candidate peptides was investigated following procedure. […] Ice-cold acetonitrile was added to terminate the reaction. Vortex and stand for 1 min, deionized water with 1% TFA was added to the mixture to further terminate the reaction. Mixtures were then centrifuged (13,000g, 10 min) to obtain the supernatant. RP-HPLC-MS was applied to analysis the content of candidate peptides. The serum stability of candidate peptides was represented as the retention rate of each peptide.

SMILES: CCC[C@H](NC(=O)[C@@H]1CCCN1)C(=O)N[C@@H](CC(C)C)C(=O)N[C@@H](Cc1ccc(O)cc1)C(=O)N[C@@H](Cc1ccc(O)cc1)C(=O)N[C@@H](Cc1ccccc1)C(=O)N[C@@H](C)C(N)=O [JT003] (H-P[Nva]LYYFA-NH2)
- HFD-induced insulin resistance, insulin tolerance test (HFD induced NASH mice): obviously ameliorated
- HYP, Supplementary Figure 14 ([1]; replicate 1): 4.654
- HYP, Supplementary Figure 14 ([1]; replicate 2): 11.7831
- HYP, Supplementary Figure 14 ([1]; replicate 3): 12.1297
- AST, Supplementary Figure 14 ([1]; replicate 1): 54.5376
- AST, Supplementary Figure 14 ([1]; replicate 2): 45.2431
- AST, Supplementary Figure 14 ([1]; replicate 3): 22.8392
- AST, Supplementary Figure 14 ([1]; replicate 4): 27.6777
- AST, Supplementary Figure 14 ([1]; replicate 5): 24.2523
- AST, Supplementary Figure 14 ([1]; replicate 6): 28.6282
- ALT, AST and HYP activities ([1]; CCl4 mice, JT003 500 μg kg−1 i.p. daily 3 weeks, in words): notably diminished
- Akr1c18 liver RNAseq expression ([2]; Figure 6c): 0.1038
- Bco1 liver RNAseq expression ([2]; Figure 6c): 0.5514
- Brca1 liver RNAseq expression ([2]; Figure 6c): -0.5686
- C3ar1 liver RNAseq expression ([2]; Figure 6c): -0.04576
- C5ar1 liver RNAseq expression ([2]; Figure 6c): -0.1308
- Ccl9 liver RNAseq expression ([2]; Figure 6c): 1.215
- Cxcl1 liver RNAseq expression ([2]; Figure 6c): 1.2887
- Fbn1 liver RNAseq expression ([2]; Figure 6c): -0.3979
- Fbn2 liver RNAseq expression ([2]; Figure 6c): -1.301
- Nupr1 liver RNAseq expression ([2]; Figure 6c): 0.5866
- Ptges liver RNAseq expression ([2]; Figure 6c): -0.4949
- Rdh11 liver RNAseq expression ([2]; Figure 6c): 0.8089
- Robo1 liver RNAseq expression ([2]; Figure 6c): -0.03152
- Xcr1 liver RNAseq expression ([2]; Figure 6c): -0.1135
- Alg8 liver RNAseq expression ([2]; Figure 7c): 0.5944
- Anxa5 liver RNAseq expression ([2]; Figure 7c): 1.645
- Atp2b2 liver RNAseq expression ([2]; Figure 7c): -0.4202
- Atp7b liver RNAseq expression ([2]; Figure 7c): 0.2148
- Ces3b liver RNAseq expression ([2]; Figure 7c): 2.066
- Creb3l2 liver RNAseq expression ([2]; Figure 7c): 0.1072
- Dhrs9 liver RNAseq expression ([2]; Figure 7c): -0.6021
- Elovl3 liver RNAseq expression ([2]; Figure 7c): 0.433
- Fitm1 liver RNAseq expression ([2]; Figure 7c): -0.3372
- Fmo2 liver RNAseq expression ([2]; Figure 7c): 0.8831
- Fndc5 liver RNAseq expression ([2]; Figure 7c): -0.7212
- Grik5 liver RNAseq expression ([2]; Figure 7c): 0.5888
- Mia2 liver RNAseq expression ([2]; Figure 7c): 0.7875
- Myo5a liver RNAseq expression ([2]; Figure 7c): -0.7959
- Nat8f5 liver RNAseq expression ([2]; Figure 7c): 0.6064
- Nsdhl liver RNAseq expression ([2]; Figure 7c): 0.8949
- Nucb2 liver RNAseq expression ([2]; Figure 7c): 0.4814
- Pdilt liver RNAseq expression ([2]; Figure 7c): 0.5899
- Pkmyt1 liver RNAseq expression ([2]; Figure 7c): 0.09691
- Prom1 liver RNAseq expression ([2]; Figure 7c): -0.03152
- Serpina1e liver RNAseq expression ([2]; Figure 7c): 3.324
- Slc37a2 liver RNAseq expression ([2]; Figure 7c): -0.4559
- Soat1 liver RNAseq expression ([2]; Figure 7c): -0.1079
- Sorl1 liver RNAseq expression ([2]; Figure 7c): -0.8539
- Srd5a2 liver RNAseq expression ([2]; Figure 7c): -0.09691
- Trim59 liver RNAseq expression ([2]; Figure 7c): -0.4949
- Zdhhc2 liver RNAseq expression ([2]; Figure 7c): -0.3468
- Adamts5 liver RNAseq expression ([2]; Figure 5d): -0.4318
- Adamtsl1 liver RNAseq expression ([2]; Figure 5d): -0.9208
- Anxa2 liver RNAseq expression ([2]; Figure 5d): 1.107
- Ckap4 liver RNAseq expression ([2]; Figure 5d): -0.05061
- Col1a1 liver RNAseq expression ([2]; Figure 5d): 0.8745
- Col1a2 liver RNAseq expression ([2]; Figure 5d): 0.934
- Col3a1 liver RNAseq expression ([2]; Figure 5d): 1.043
- Col6a3 liver RNAseq expression ([2]; Figure 5d): 0.1367
- Lgals3 liver RNAseq expression ([2]; Figure 5d): 0.941
- Lpl liver RNAseq expression ([2]; Figure 5d): 1.015
- Ltbp2 liver RNAseq expression ([2]; Figure 5d): -0.2757
- Mmp12 liver RNAseq expression ([2]; Figure 5d): -0.1805
- Nid1 liver RNAseq expression ([2]; Figure 5d): 0.5877
- Nid2 liver RNAseq expression ([2]; Figure 5d): 0.03342
- Npnt liver RNAseq expression ([2]; Figure 5d): -1.222
- Serpine2 liver RNAseq expression ([2]; Figure 5d): 0.143
- Slpi liver RNAseq expression ([2]; Figure 5d): 0.6998
- Tubb4b liver RNAseq expression ([2]; Figure 5d): 1.687
- Fraction of peptide remaining, Supplementary Figure 5 ([3]; time 0 (unit not given), replicate 1): 0.9904
- Fraction of peptide remaining, Supplementary Figure 5 ([3]; time 0 (unit not given), replicate 2): 1.127
- Fraction of peptide remaining, Supplementary Figure 5 ([3]; time 0 (unit not given), replicate 3): 0.9633
- Fraction of peptide remaining, Supplementary Figure 5 ([3]; time 1 (unit not given), replicate 2): 0.7303
- Fraction of peptide remaining, Supplementary Figure 5 ([3]; time 1 (unit not given), replicate 3): 0.7063
- Fraction of peptide remaining, Supplementary Figure 5 ([3]; time 2 (unit not given), replicate 1): 0.4963
- Fraction of peptide remaining, Supplementary Figure 5 ([3]; time 2 (unit not given), replicate 2): 0.5281
- Fraction of peptide remaining, Supplementary Figure 5 ([3]; time 2 (unit not given), replicate 3): 0.4921
- Fraction of peptide remaining, Supplementary Figure 5 ([3]; time 3 (unit not given), replicate 1): 0.4291
- Fraction of peptide remaining, Supplementary Figure 5 ([3]; time 3 (unit not given), replicate 2): 0.4706
- Fraction of peptide remaining, Supplementary Figure 5 ([3]; time 3 (unit not given), replicate 3): 0.4115
- Fraction of peptide remaining, Supplementary Figure 5 ([3]; time 4 (unit not given), replicate 1): 0.3431
- Fraction of peptide remaining, Supplementary Figure 5 ([3]; time 4 (unit not given), replicate 2): 0.3616
- Fraction of peptide remaining, Supplementary Figure 5 ([3]; time 4 (unit not given), replicate 3): 0.3877
- Fraction of peptide remaining, Supplementary Figure 5 ([3]; time 5 (unit not given), replicate 1): 0.4378
- Fraction of peptide remaining, Supplementary Figure 5 ([3]; time 5 (unit not given), replicate 2): 0.3169
- Fraction of peptide remaining, Supplementary Figure 5 ([3]; time 5 (unit not given), replicate 3): 0.3694
- Fraction of peptide remaining, Supplementary Figure 5 ([3]; time 6 (unit not given), replicate 1): 0.3549
- Fraction of peptide remaining, Supplementary Figure 5 ([3]; time 6 (unit not given), replicate 2): 0.2659
- Fraction of peptide remaining, Supplementary Figure 5 ([3]; time 6 (unit not given), replicate 3): 0.2904
- Fraction of peptide remaining, Supplementary Figure 5 ([3]; time 8 (unit not given), replicate 2): 0.272
- Fraction of peptide remaining, Supplementary Figure 5 ([3]; time 8 (unit not given), replicate 3): 0.2915
- Fraction of peptide remaining, Supplementary Figure 5 ([3]; time 12 (unit not given), replicate 2): 0.1256
- Fraction of peptide remaining, Supplementary Figure 5 ([3]; time 12 (unit not given), replicate 3): 0.2003
- remaining at 12 h, 5 mM ([3]; mouse, 5 mM peptide, 37 °C, 12 h, triplicate, mean, read-out: retention rate after incubation in serum): ~22%
